Tested on: 755483-174-R-J1-PDC complex spheroid growth, percent test/control
Test: Anticancer human tumor 755483-174-R-J1-PDC patient-derived rhabdomyosarcoma cell line growth inhibition [Asc]
Settings: for IC50: curve of first compound; for viability, T/C: stronger effect = lower value; active = viability on the fitted dose curve at most 10% of control; inactive = the rest
How it was run: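 Complex spheroids combining tumor cells with HUVEC endothelial cells and human MSCs, at 37 degrees C, 5% CO2; agents tested alone or combined, half-log dilutions from at or near clinical Cmax, or 10 microM if Cmax unknown.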

[1] = second compound 0.1 µM, first compound 0.0316 µM
[2] = second compound 0.1 µM, first compound 0.1 µM
[3] = second compound 0.1 µM, first compound 0.316 µM
[4] = second compound 0.1 µM, first compound 1 µM
[5] = second compound 0.316 µM, first compound 0.0316 µM
[6] = second compound 0.316 µM, first compound 0.1 µM
[7] = second compound 0.316 µM, first compound 0.316 µM
[8] = second compound 0.316 µM, first compound 1 µM
[9] = second compound 1 µM, first compound 0.0316 µM
[10] = second compound 1 µM, first compound 0.1 µM
[11] = second compound 1 µM, first compound 0.316 µM
[12] = second compound 1 µM, first compound 1 µM
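Also: spheroids exposed to compounds for seven days before readout.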

C#Cc1c(F)ccc2cc(O)cc(-c3ncc4c(N5CC6CCC(C5)N6)nc(OCC56CCCN5CC(F)C6)nc4c3F)c12 (stereo not given) + Cc1c(S(C)(=O)=O)c(-c2cc(F)cc(N3CCN(c4ccc(NS(=O)(=O)c5ccc(NC(CCN6CCC(C(=O)OCCCP(=O)(O)O)CC6)CSc6ccccc6)c(S(=O)(=O)C(F)(F)F)c5)cc4)CC3)c2)c(-c2ccc(Cl)cc2)n1C(C)C
1280 nM: IC50 (second compound 0.316 µM)
< 31.6 nM: IC50 (second compound 1 µM) | IC50 (second compound 3.16 µM) | IC50 (second compound 10 µM)
active: viability, T/C (second compound 1 µM, first compound 10 µM) 5.81% | viability, T/C (second compound 3.16 µM, first compound 10 µM) 4.86%
inactive: viability, T/C [1] 60.1% | viability, T/C [2] 65.8% | viability, T/C [3] 67.2% | viability, T/C [4] 47.9% | viability, T/C (second compound 0.1 µM, first compound 3.16 µM) 36.6% | viability, T/C (second compound 0.1 µM, first compound 10 µM) 12.6% | viability, T/C [5] 49% | viability, T/C [6] 63.5% | viability, T/C [7] 47.6% | viability, T/C [8] 55.4% | viability, T/C (second compound 0.316 µM, first compound 3.16 µM) 35.8% | viability, T/C (second compound 0.316 µM, first compound 10 µM) 10.3% | viability, T/C [9] 44.9% | viability, T/C [10] 49.5% | viability, T/C [11] 39.1% | viability, T/C [12] 39.1% | viability, T/C (second compound 1 µM, first compound 3.16 µM) 27.3% | viability, T/C (second compound 3.16 µM, first compound 0.0316 µM) 42.3% | viability, T/C (second compound 3.16 µM, first compound 0.1 µM) 36.8% | viability, T/C (second compound 3.16 µM, first compound 0.316 µM) 41.5% | viability, T/C (second compound 3.16 µM, first compound 1 µM) 33.6% | viability, T/C (second compound 3.16 µM, first compound 3.16 µM) 23.8% | viability, T/C (second compound 10 µM, first compound 0.0316 µM) 37.9% | viability, T/C (second compound 10 µM, first compound 0.1 µM) 35.3% | viability, T/C (second compound 10 µM, first compound 0.316 µM) 45.4% | viability, T/C (second compound 10 µM, first compound 1 µM) 35.9% | viability, T/C (second compound 10 µM, first compound 3.16 µM) 20.8% | viability, T/C (second compound 10 µM, first compound 10 µM) 17.5%
1200 nM: IC50 (second compound 0.1 µM)

CCN1CCN(Cc2ccc(Nc3ncc(F)c(-c4cc(F)c5nc(C)n(C(C)C)c5c4)n3)nc2)CC1 + CNC(C)C(=O)NC1CN(S(=O)(=O)c2cccc(S(=O)(=O)N3CCC4CCC(C(=O)NC(c5ccccc5)c5ccccc5)N4C(=O)C(NC(=O)C(C)NC)C3)c2)CCC2CCC(C(=O)NC(c3ccccc3)c3ccccc3)N2C1=O
< 3.16 nM: IC50 (second compound 0.01 µM) | IC50 (second compound 0.0316 µM) | IC50 (second compound 0.316 µM) | IC50 (second compound 1 µM)
inactive: viability, T/C (second compound 0.01 µM, first compound 0.00316 µM) 31.1% | viability, T/C (second compound 0.01 µM, first compound 0.01 µM) 66% | viability, T/C (second compound 0.01 µM, first compound 0.0316 µM) 53.4% | viability, T/C (second compound 0.01 µM, first compound 0.1 µM) 54.2% | viability, T/C (second compound 0.01 µM, first compound 0.316 µM) 61% | viability, T/C (second compound 0.01 µM, first compound 1 µM) 74.4% | viability, T/C (second compound 0.0316 µM, first compound 0.00316 µM) 43.8% | viability, T/C (second compound 0.0316 µM, first compound 0.01 µM) 33.8% | viability, T/C (second compound 0.0316 µM, first compound 0.0316 µM) 40.6% | viability, T/C (second compound 0.0316 µM, first compound 0.1 µM) 40.5% | viability, T/C (second compound 0.0316 µM, first compound 0.316 µM) 63.8% | viability, T/C (second compound 0.0316 µM, first compound 1 µM) 69.5% | viability, T/C (second compound 0.1 µM, first compound 0.00316 µM) 58.5% | viability, T/C (second compound 0.1 µM, first compound 0.01 µM) 37.7% | viability, T/C [1] 55.4% | viability, T/C [2] 59.5% | viability, T/C [3] 47.8% | viability, T/C [4] 57.5% | viability, T/C (second compound 0.316 µM, first compound 0.00316 µM) 16.2% | viability, T/C (second compound 0.316 µM, first compound 0.01 µM) 37.3% | viability, T/C [5] 40.9% | viability, T/C [6] 31% | viability, T/C [7] 47.5% | viability, T/C [8] 39.9% | viability, T/C (second compound 1 µM, first compound 0.00316 µM) 32.1% | viability, T/C (second compound 1 µM, first compound 0.01 µM) 18.2% | viability, T/C [9] 26.8% | viability, T/C [10] 18.6% | viability, T/C [11] 26.1% | viability, T/C [12] 32.3%
> 1000 nM: IC50 (second compound 0.1 µM)

— PubChem BioAssay AID1963434 (Molecular Pharmacology Branch, DTP, NCI, 2024)
